PubChem BioAssay (NCI)
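Abbreviation: GI50, concentration required for 50% inhibition of growth. TGI marks complete inhibition of growth.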

Key:
Test in all cases: NCI-60 cell line screen, 384-well format
786-0 renal = test system: 786-0 renal
A498 renal = test system: A498 renal
A549 NSCLC = test system: A549 NSCLC
ACHN renal = test system: ACHN renal
BT-549 breast = test system: BT-549 breast
CAKI-1 renal = test system: CAKI-1 renal
CCRF-CEM leukemia = test system: CCRF-CEM leukemia
DU-145 prostate = test system: DU-145 prostate
EKVX NSCLC = test system: EKVX NSCLC
HCT-116 colon = test system: HCT-116 colon
HCT-15 colon = test system: HCT-15 colon
HL-60(TB) leukemia = test system: HL-60(TB) leukemia
HOP-62 NSCLC = test system: HOP-62 NSCLC
HOP-92 NSCLC = test system: HOP-92 NSCLC
HS 578T breast = test system: HS 578T breast
HT29 colon = test system: HT29 colon
IGROV1 ovarian = test system: IGROV1 ovarian
K-562 leukemia = test system: K-562 leukemia
KM12 colon = test system: KM12 colon
M14 melanoma = test system: M14 melanoma
MALME-3M melanoma = test system: MALME-3M melanoma
MCF7 breast = test system: MCF7 breast
MDA-MB-231 breast = test system: MDA-MB-231 breast
MDA-MB-435 melanoma = test system: MDA-MB-435 melanoma
MDA-MB-468 breast = test system: MDA-MB-468 breast
NCI-H226 lung = test system: NCI-H226 lung
NCI-H23 lung = test system: NCI-H23 lung
NCI-H322M lung = test system: NCI-H322M lung
NCI-H522 lung = test system: NCI-H522 lung
NCI/ADR-RES ovarian = test system: NCI/ADR-RES ovarian
OVCAR-3 ovarian = test system: OVCAR-3 ovarian
OVCAR-4 ovarian = test system: OVCAR-4 ovarian
OVCAR-5 ovarian = test system: OVCAR-5 ovarian
OVCAR-8 ovarian = test system: OVCAR-8 ovarian
PC-3 prostate = test system: PC-3 prostate
RPMI-8226 leukemia = test system: RPMI-8226 leukemia
SF-268 CNS = test system: SF-268 CNS
SF-295 CNS = test system: SF-295 CNS
SF-539 CNS = test system: SF-539 CNS
SK-MEL-2 melanoma = test system: SK-MEL-2 melanoma
SK-MEL-28 melanoma = test system: SK-MEL-28 melanoma
SK-OV-3 ovarian = test system: SK-OV-3 ovarian
SN12C renal = test system: SN12C renal
SNB-19 CNS = test system: SNB-19 CNS
SNB-75 CNS = test system: SNB-75 CNS
SW-620 colon = test system: SW-620 colon
T-47D breast = test system: T-47D breast
TK-10 renal = test system: TK-10 renal
U251 glioblastoma = test system: U251 glioblastoma
UACC-257 melanoma = test system: UACC-257 melanoma
UACC-62 melanoma = test system: UACC-62 melanoma
UO-31 renal = test system: UO-31 renal

CC[C@]1(O)C[C@H]2CN(CCc3c([nH]c4ccccc34)[C@@](C(=O)OC)(c3cc4c(cc3OC)N(C)[C@H]3[C@@](O)(C(=O)OC)[C@H](OC(C)=O)[C@]5(CC)C=CCN6CC[C@]43[C@@H]65)C2)C1
GI50 ([…]-0 renal): < 19.1 nM
TGI (786-0 renal): 4130 nM
GI50 (A498 renal): < 19.9 nM
GI50 (A549 NSCLC): < 21.2 nM
TGI (A549 NSCLC): 14100 nM
TGI (ACHN renal): 6080 nM
GI50 (BT-549 breast): < 16.2 nM
TGI (BT-549 breast): 42.6 nM
GI50 (CAKI-1 renal): < 22.6 nM
TGI (CAKI-1 renal): 3880 nM
GI50 (CCRF-CEM leukemia): < 13.6 nM
TGI (CCRF-CEM leukemia): < 18.2 nM
GI50 (DU-145 prostate): < 18.7 nM
GI50 (EKVX NSCLC): 30.4 nM
TGI (EKVX NSCLC): 11900 nM
GI50 (HCT-116 colon): < 17.8 nM
TGI (HCT-116 colon): 595 nM
GI50 (HCT-15 colon): 52 nM
TGI (HCT-15 colon): 10400 nM
TGI (HL-60(TB) leukemia): < 11.1 nM
GI50 (HOP-62 NSCLC): < 17.5 nM
TGI (HOP-62 NSCLC): 1250 nM
GI50 (HOP-92 NSCLC): 66.4 nM
TGI (HOP-92 NSCLC): 8390 nM
GI50 (HS 578T breast): < 13.6 nM
TGI (HS 578T breast): < 20.8 nM
GI50 (HT29 colon): 31.5 nM
TGI (HT29 colon): 10700 nM
GI50 (IGROV1 ovarian): < 39 nM
TGI (IGROV1 ovarian): 4400 nM
TGI (K-562 leukemia): < 18.8 nM
GI50 (KM12 colon): 33.1 nM
TGI (KM12 colon): 13800 nM
GI50 (M14 melanoma): 22.7 nM
TGI (M14 melanoma): 13200 nM
GI50 (MALME-3M melanoma): < 23.8 nM
TGI (MALME-3M melanoma): 16400 nM
GI50 (MCF7 breast): < 19.1 nM
TGI (MCF7 breast): 3170 nM
GI50 (MDA-MB-231 breast): < 20.5 nM
TGI (MDA-MB-231 breast): 8400 nM
GI50 (MDA-MB-435 melanoma): < 13.7 nM
TGI (MDA-MB-435 melanoma): < 21.1 nM
GI50 (MDA-MB-468 breast): < 14.9 nM
TGI (MDA-MB-468 breast): < 20.7 nM
GI50 (NCI-H226 lung): < 26.3 nM
TGI (NCI-H226 lung): 13000 nM
GI50 (NCI-H23 lung): 25.8 nM
TGI (NCI-H23 lung): 79.6 nM
GI50 (NCI-H322M lung): < 24.5 nM
TGI (NCI-H322M lung): 20300 nM
GI50 (NCI-H522 lung): < 14.1 nM
TGI (NCI-H522 lung): < 19.6 nM
GI50 (NCI/ADR-RES ovarian): 454 nM
TGI (NCI/ADR-RES ovarian): 1020 nM
GI50 (OVCAR-3 ovarian): < 15.1 nM
TGI (OVCAR-3 ovarian): < 26.5 nM
GI50 (OVCAR-4 ovarian): 357 nM
TGI (OVCAR-4 ovarian): 14700 nM
GI50 (OVCAR-5 ovarian): < 21.1 nM
TGI (OVCAR-5 ovarian): 16800 nM
GI50 (OVCAR-8 ovarian): < 16.4 nM
TGI (OVCAR-8 ovarian): < 28.4 nM
GI50 (PC-3 prostate): < 19.5 nM
TGI (PC-3 prostate): 11800 nM
GI50 (RPMI-8226 leukemia): < 11.6 nM
TGI (RPMI-8226 leukemia): < 16.8 nM
GI50 (SF-268 CNS): < 20.3 nM
TGI (SF-268 CNS): 4860 nM
GI50 (SF-295 CNS): < 14.8 nM
TGI (SF-295 CNS): < 22.6 nM
GI50 (SF-539 CNS): < 14.3 nM
TGI (SF-539 CNS): < 21.5 nM
GI50 (SK-MEL-2 melanoma): < 16.2 nM
TGI (SK-MEL-2 melanoma): < 25.4 nM
GI50 (SK-MEL-28 melanoma): < 39 nM
TGI (SK-MEL-28 melanoma): 14600 nM
GI50 (SK-OV-3 ovarian): < 20.6 nM
TGI (SK-OV-3 ovarian): 904 nM
GI50 (SN12C renal): < 25 nM
TGI (SN12C renal): 14700 nM
GI50 (SNB-19 CNS): < 21.6 nM
TGI (SNB-19 CNS): 2300 nM
GI50 (SNB-75 CNS): < 20.6 nM
GI50 (SW-620 colon): < 20.2 nM
TGI (SW-620 colon): 16300 nM
GI50 (T-47D breast): 544 nM
TGI (T-47D breast): 19900 nM
GI50 (TK-10 renal): < 26.9 nM
TGI (TK-10 renal): 14600 nM
GI50 (U251 glioblastoma): < 17.7 nM
GI50 (UACC-257 melanoma): 412 nM
TGI (UACC-257 melanoma): 10600 nM
GI50 (UACC-62 melanoma): < 17.1 nM
GI50 (UO-31 renal): 157 nM
TGI (UO-31 renal): 7780 nM
